Source: patent publication US6455583B1, “Method for treating meibomian gland disease” (The University of Miami, priority 1998, dated 2002)
Values joined by “and” are separate entries in the source; they are usually repeats but may differ in a detail not shown here. Equal entries are not always repeated. One block for each compound: values may come before it.

What was measured:
IL-1RA = IL-1RA release by human corneal epithelial cell cultures; type: cell-based; details: 24 h, FIG. 7
Experimental: Media=negative control; LPS=cultures treated with lipopolysaccharide for 24 h; Doxy=cultures treated with doxycycline (5 μg/ml) for 24 h; CMT 3=cultures treated with chemically modified tetracycline CMT 3 (1 μg/ml) for 24 hr; Doxy+LPS=cultures treated with LPS and doxycycline (5 μg/ml) for 24 h; CMT 3+LPS=cultures treated with LPS and chemically modified tetracycline CMT 3 (1 μg/ml) for 24 hr.
IL-1RA has an anti-inflammatory effect by competing with the pro-inflammatory forms of IL-1 (IL-1α and IL-1β) for the type 1 receptor. […] Furthermore, the concentration of IL-1RA in corneal epithelial cultures stimulated with LPS and treated with either doxycycline or CMT-3 was greater than cultures exposed to LPS alone (FIG. 7). These findings indicate tetracyclines are anti-inflammatory due to their ability to stimulate IL-1RA release by the human corneal epithelium.

[1] = system: patients with meibomian gland disease and delayed tear clearance; test: Topical 0.025% doxycycline solution in patients with meibomian gland disease and delayed tear clearance (Example 6); type: in vivo, human
Source text: Tetracyclines and chemically modified tetracyclines for topical administration can be added to buffered and electrolyte balanced aqueous solutions, buffered and electrolyte balanced aqueous solutions with a lubricating polymer, mineral oil or petrolatum-based ointment, other oils, liposomes, cylcodextrins, sustained release polymers or gels in a range from 0.001 to 3% (weight per volume or weight per weight). These preparations can be administered to the preocular tear film or onto the eyelid skin or lid margin 1 to 6 times per day for a period up to the lifetime of the patient. For example, an eye drop solution comprising doxycycline as an active ingredient was prepared by dissolving pharmaceutical grade doxycycline hydrochloride powder in an electrolyte-balanced salt solution (BSS™, Alcon, Ft. Worth, Tex.) to a final concentration of 0.025%.
The solution was prepared as described herein.

pro-MMP9 = pro-MMP9 activity in supernatant of human corneal epithelial cultures (gelatin zymogram); type: cell-based; details: doxycycline 5·g/ml for 24 hours, compared to untreated cultures; FIG. 8
Experimental: FIG. 8 is a gelatin zymogram of human corneal epithelial cell supernatant: doxycycline treatment and MMP-3 activation. Lane Legend: (1) 92 kDa purified pro-MMP-9 standard (0.1 ng); (2) Corneal epithelial supernatant+50 μg/mL doxycycline; (3)Supernatant+50 μg/mL doxycycline+1.5 ng/μL MMP-3; (4) Supernatant+100 μg/mL doxycycline+1.5 ng/μL MMP-3; (5) Supernatant from cell culture pre-treated with doxycycline; (6) Supernatant from cell culture pre-treated with doxycycline+1.5 ng/μL MMP-3. Exposure of human corneal epithelial cultures to doxycycline (5·g/ml) for 24 hours decreased the level of pro-MMP9 activity in the supernatant by 70% compared to untreated cultures (FIG. 8). MMP-9 is the metalloproteinase responsible for initiating sterile corneal ulceration and it is also capable of cleaving precursor IL-1β into its mature form.

[2] = system: patients with ocular rosacea; test: Topical oxytetracycline ointment in patients with meibomian gland disease associated with rosacea and delayed tear clearance (Example 5); type: in vivo, human; parameters: key to Clinical Response (per patient): Excellent response, complete or almost complete relief of symptoms.; Good response, symptoms moderately, but not completed relieved
Experimental: Eleven ( 11) patients with ocular irritation symptoms due to meibomian gland disease associated with rosacea and delayed tear clearance were treated with a commercially available oxytetracycline ointment (Terak, Akorn Pharmaceuticals) as a topical administration to the ocular surface or the eyelids. Seventy-three percent (73%) of these patients had complete resolution of irritation symptoms.

Compound: NC(=O)C1=C(O)C[C@@H]2C[C@@H]3Cc4cccc(O)c4C(=O)C3=C(O)[C@]2(O)C1=O [CMT-3]
concentration of IL-1RA in LPS-stimulated cultures compared to LPS alone (IL-1RA; LPS + doxycycline 5 μg/ml or CMT 3 1 μg/ml): greater | release of IL-1RA into the media compared to untreated cultures (IL-1RA; doxycycline 5 μg/ml or CMT 3 1 μg/ml): significantly increased

Compound: C[C@H]1c2cccc(O)c2C(=O)C2=C(O)[C@]3(O)C(=O)C(C(N)=O)=C(O)[C@@H](N(C)C)[C@@H]3[C@@H](O)[C@@H]21 [doxycycline]
RESPONSE (per patient) ([1]; 0.025% topical doxycycline solution, one line per patient 1-11, diagnosis MGD, DTC): no effect | patients with complete resolution of symptoms ([1]; topical solution (doxycycline eye drops), 11 patients): more than 90% | decrease of the level of pro-MMP9 activity in the supernatant (pro-MMP9): 70%

patients who experienced burning from the medication ([2]; topical ointment, 11 patients, one of which ceased treatment): Three
Compound: CN(C)[C@@H]1C(O)=C(C(N)=O)C(=O)[C@@]2(O)C(O)=C3C(=O)c4c(O)cccc4[C@@](C)(O)[C@H]3[C@H](O)[C@@H]12 [oxytetracycline]
patients with complete resolution of (irritation) symptoms ([2]; topical ointment to ocular surface or eyelids, 11 patients): 73% | Clinical Response (per patient) ([2]; topical oxytetracycline ointment, one line per patient 1-11): G (3×) and E (8×) | Comments (tolerability, per patient) ([2]; topical oxytetracycline ointment, per patient): mild burning
